Laboratory results reported in the supplement of paper PMC10307832.

Tests used:
Assay in all cases: relative viability (nuclei count vs DMSO), 5 days (fraction); higher = more cells survive
[1] = compound: CC1(C)CNc2cc(NC(=O)c3cccnc3NCc3ccncc3)ccc21 [Motesanib] + O=C(c1cc(Cc2n[nH]c(=O)c3ccccc23)ccc1F)N1CCN(C(=O)C2CC2)CC1 [Olaparib] (partner 8 µM)
Outline: (§1)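 Lung cancer cell lines, seeded in 1536-well plates, were treated the following day by pin tool with a single drug or with five library-drug doses (not always all listed) in √10 steps on top of a fixed anchor-drug dose. Cells were fixed and nuclei stained in one step after 5 days, and nuclei were counted. Relative viability is the nuclei count for treated wells divided by that for vehicle wells, reported as medians of duplicate plates.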

[2] = compound: C[C@@]1(C(=O)Nc2ccc(F)nc2)CCCN1c1nc(Nc2cc(C3CC3)n[nH]2)c2cccn2n1 + O=C(CCCCCCC(=O)Nc1ccccc1)NO [Vorinostat] (partner 1 µM)
Outline: as §1

[3] = compound: CC1(C)CNc2cc(NC(=O)c3cccnc3NCc3ccncc3)ccc21 [Motesanib] + Nc1nc2[nH]cc(CCc3ccc(C(=O)N[C@@H](CCC(=O)O)C(=O)O)cc3)c2c(=O)[nH]1 [Pemetrexed] (partner 0.2 µM)
Outline: as §1

[4] = compound: C[C@@]1(C(=O)Nc2ccc(F)nc2)CCCN1c1nc(Nc2cc(C3CC3)n[nH]2)c2cccn2n1 + CS(=O)(=O)N1CCN(Cc2cc3nc(-c4cccc5[nH]ncc45)nc(N4CCOCC4)c3s2)CC1 [Pictilisib] (partner 1 µM)
Outline: as §1

Cell Line	relative viability ([1]; first compound 0.01 µM)	relative viability ([1]; first compound 0.03162 µM)	relative viability ([1]; first compound 0.1 µM)	relative viability ([1]; first compound 0.3162 µM)	relative viability ([1]; first compound 1 µM)	relative viability ([2]; first compound 0.04 µM)	relative viability ([2]; first compound 0.1265 µM)	relative viability ([2]; first compound 0.4 µM)	relative viability ([2]; first compound 1.265 µM)	relative viability ([3]; first compound 0.01 µM)	relative viability ([3]; first compound 0.03162 µM)	relative viability ([3]; first compound 0.1 µM)	relative viability ([3]; first compound 0.3162 µM)	relative viability ([3]; first compound 1 µM)	relative viability ([4]; first compound 0.04 µM)	relative viability ([4]; first compound 0.1265 µM)	relative viability ([4]; first compound 0.4 µM)	relative viability ([4]; first compound 1.265 µM)
201T	0.803	0.828	0.852	0.88	0.872	0.858	0.755	0.634	0.62	0.307	0.326	0.318	0.296	0.342	0.638	0.622	0.554	0.614
A549	0.333	0.402	0.407	0.438	0.402	–	–	–	–	–	–	–	–	–	0.283	0.292	0.172	0.148
A-427	0.78	0.7	0.672	0.732	0.777	0.93	0.857	0.864	0.49	0.963	0.912	0.963	0.992	0.972	0.79	0.679	0.739	0.705
ABC-1	0.895	0.66	0.58	1.15	0.869	1.23	0.819	0.708	0.409	–	–	–	–	–	0.598	0.6	0.467	0.394
BEN	1.02	1.04	0.938	1.18	1.43	0.537	0.492	0.467	0.439	0.539	0.774	0.73	0.582	0.749	0.614	0.573	0.606	0.614
CAL-12T	0.674	0.731	0.699	0.683	0.736	0.574	0.567	0.461	0.33	1.17	1.17	1.19	1.16	1.08	0.41	0.395	0.463	0.304
COR-L23	0.366	0.389	0.275	0.363	0.36	0.345	0.323	0.115	0.109	0.186	0.198	0.187	0.197	0.184	0.518	0.463	0.31	0.335
COR-L 105	0.767	0.761	0.745	0.725	0.804	0.845	0.611	0.579	0.604	1.19	0.96	1.34	1.12	1.33	0.414	0.328	0.26	0.241
Calu-6	0.56	0.603	0.456	0.546	0.536	–	–	–	–	–	–	–	–	–	0.965	0.833	0.695	0.425
ChaGo-K-1	0.434	0.437	0.425	0.484	0.411	0.713	0.636	0.626	0.671	0.262	0.249	0.227	0.235	0.237	0.643	0.662	0.849	0.371
EBC-1	0.732	0.674	0.694	0.729	0.783	–	–	–	–	–	–	–	–	–	0.32	0.231	0.241	0.162
EKVX	0.74	0.809	0.776	0.904	0.944	0.616	0.648	0.509	0.684	0.414	0.377	0.368	0.394	0.406	0.354	0.328	0.33	0.409
EMC-BAC-2	0.482	0.516	0.494	0.471	0.474	0.37	0.343	0.304	0.178	0.412	0.408	0.471	0.412	0.524	0.514	0.498	0.358	0.495
EPLC-272H	0.779	1.33	0.759	0.689	0.745	0.578	0.234	0.336	0.406	0.656	0.285	0.254	0.273	0.243	0.251	0.18	0.168	0.174
H3255	0.564	0.601	0.576	0.585	0.643	0.852	0.816	0.815	0.829	0.552	0.59	0.602	0.589	0.587	0.49	0.423	0.415	0.371
HARA	0.761	0.937	1.06	0.902	1.05	0.364	0.233	0.31	0.433	0.194	0.207	0.128	0.185	0.212	0.366	0.208	0.215	0.294
HCC-15	0.632	0.74	0.739	0.702	0.724	0.689	0.51	0.555	0.774	0.212	0.203	0.188	0.179	0.202	0.715	0.573	0.747	0.745
HCC-44	0.944	0.926	1.07	1.09	0.95	1.08	1.02	0.887	1.08	0.656	0.653	0.788	0.724	0.605	0.532	0.386	0.841	0.328
HCC-78	0.938	0.789	0.655	–	0.834	0.33	0.491	0.245	0.327	0.902	0.897	0.858	–	0.906	0.204	0.148	0.172	0.189
HCC-366	0.278	0.375	0.403	0.352	0.397	0.395	0.315	0.2	0.0599	0.189	0.154	0.18	0.147	0.143	0.105	0.104	0.101	0.12
